How the values were obtained:
[1] = target: Tyrosine-protein kinase HCK (Homo sapiens) (UniProt P08631); assay: Inhibition of human HCK at 100 nM using KVEKIGEGTYGVVYK as substrate by [gamma-33P]-ATP assay
[2] = target: MAP kinase-interacting serine/threonine-protein kinase 2 (Homo sapiens) (UniProt Q9HBH9); assay: Inhibition of human MNK2 at 100 nM using MBP as substrate by [gamma-33P]-ATP assay
[3] = target: MAP kinase-activated protein kinase 3 (Homo sapiens) (UniProt Q16644); assay: Inhibition of human MAPKAPK3 at 100 nM using KKLNRTLSVA as substrate by [gamma-33P]-ATP assay
[4] = test system: HeLa; assay: Inhibition of colony formation in human HeLa cells at > 5 uM incubated for 2 weeks crystal violet staining based assay; type: functional
[5] = target: Tyrosine-protein kinase Fyn (Homo sapiens) (UniProt P06241); assay: Inhibition of human FYN at 100 nM using poly[Glu:Tyr] (4:1) as substrate by [gamma-33P]-ATP assay
[6] = target: cAMP-dependent protein kinase catalytic subunit alpha (Homo sapiens) (UniProt P17612); assay: Inhibition of human PKA at 100 nM using LCGRTGRRNSI as substrate by [gamma-33P]-ATP assay
[7] = target: Calcium/calmodulin-dependent protein kinase type IV (Homo sapiens) (UniProt Q16566); assay: Inhibition of human CAMK4 at 100 nM using KKLNRTLSFAEPG as substrate by [gamma-33P]-ATP assay
[8] = target: Serine/threonine-protein kinase BRSK2 (Homo sapiens) (UniProt Q8IWQ3); assay: Inhibition of human BRSK2 at 100 nM using KKLNRTLSFAEPG as substrate by [gamma-33P]-ATP assay
[9] = test system: PC-12; assay: Cytotoxicity against rat PC12 cells assessed as reduction in cell viability at 0.625 to 20 uM incubated for 72 hrs by MTT assay; type: cell-based; conditions: pc-12, 72 h
[10] = target: Serine/threonine-protein kinase 4 (Homo sapiens) (UniProt Q13043); assay: Inhibition of human MST1 at 100 nM using KKSRGDYMTMQIG as substrate by [gamma-33P]-ATP assay
Chain of Serine/threonine-protein kinase 4 (Homo sapiens) (Q13043 whole entry): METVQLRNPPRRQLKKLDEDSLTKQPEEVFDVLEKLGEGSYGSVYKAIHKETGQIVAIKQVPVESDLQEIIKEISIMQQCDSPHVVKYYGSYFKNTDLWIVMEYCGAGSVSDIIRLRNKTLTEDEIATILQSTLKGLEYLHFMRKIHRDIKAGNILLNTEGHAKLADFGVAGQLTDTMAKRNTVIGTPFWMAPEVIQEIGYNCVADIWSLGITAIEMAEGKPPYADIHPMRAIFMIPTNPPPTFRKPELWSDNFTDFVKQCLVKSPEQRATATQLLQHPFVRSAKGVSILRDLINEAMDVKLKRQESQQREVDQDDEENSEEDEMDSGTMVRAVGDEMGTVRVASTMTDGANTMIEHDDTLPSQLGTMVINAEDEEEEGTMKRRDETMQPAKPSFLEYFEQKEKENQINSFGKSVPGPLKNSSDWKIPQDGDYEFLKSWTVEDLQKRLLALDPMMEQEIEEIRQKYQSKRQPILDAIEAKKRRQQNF

[11] = target: Mitogen-activated protein kinase 15 (Homo sapiens) (UniProt Q8TD08); assay: Inhibition of human ERK7 at 100 nM using MBP as substrate by [gamma-33P]-ATP assay
Chain of Mitogen-activated protein kinase 15 (Homo sapiens) (Q8TD08 whole entry): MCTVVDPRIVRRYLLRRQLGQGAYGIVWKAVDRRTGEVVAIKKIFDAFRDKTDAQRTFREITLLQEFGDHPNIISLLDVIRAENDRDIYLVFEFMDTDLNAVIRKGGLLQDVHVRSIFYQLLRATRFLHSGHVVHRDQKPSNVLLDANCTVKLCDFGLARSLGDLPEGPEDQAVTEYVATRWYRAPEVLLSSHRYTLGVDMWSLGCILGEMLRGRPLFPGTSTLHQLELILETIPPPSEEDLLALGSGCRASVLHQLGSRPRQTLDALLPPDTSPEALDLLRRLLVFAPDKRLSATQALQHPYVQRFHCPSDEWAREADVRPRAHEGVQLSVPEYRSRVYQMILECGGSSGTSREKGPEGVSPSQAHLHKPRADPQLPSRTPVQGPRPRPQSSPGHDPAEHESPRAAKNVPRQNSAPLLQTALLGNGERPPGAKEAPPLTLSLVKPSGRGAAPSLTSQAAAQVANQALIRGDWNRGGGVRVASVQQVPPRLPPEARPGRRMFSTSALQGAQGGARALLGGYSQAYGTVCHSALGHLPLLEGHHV

[12] = target: Mitogen-activated protein kinase kinase kinase 19 (Homo sapiens) (UniProt Q56UN5); assay: Inhibition of human YSK4 at 100 nM using MBP as substrate by [gamma-33P]-ATP assay
[13] = target: Serine/threonine-protein kinase LATS1 (Homo sapiens) (UniProt O95835); assay: Inhibition of human LATS1 at 100 nM using KKRNRRLSVA as substrate by [gamma-33P]-ATP assay
[14] = target: Ephrin type-B receptor 1 (Homo sapiens) (UniProt P54762); assay: Inhibition of human EPHB1 at 100 nM using poly[Glu:Tyr] (4:1) as substrate by [gamma-33P]-ATP assay
Chain of Ephrin type-B receptor 1 (Homo sapiens) (P54762 whole entry): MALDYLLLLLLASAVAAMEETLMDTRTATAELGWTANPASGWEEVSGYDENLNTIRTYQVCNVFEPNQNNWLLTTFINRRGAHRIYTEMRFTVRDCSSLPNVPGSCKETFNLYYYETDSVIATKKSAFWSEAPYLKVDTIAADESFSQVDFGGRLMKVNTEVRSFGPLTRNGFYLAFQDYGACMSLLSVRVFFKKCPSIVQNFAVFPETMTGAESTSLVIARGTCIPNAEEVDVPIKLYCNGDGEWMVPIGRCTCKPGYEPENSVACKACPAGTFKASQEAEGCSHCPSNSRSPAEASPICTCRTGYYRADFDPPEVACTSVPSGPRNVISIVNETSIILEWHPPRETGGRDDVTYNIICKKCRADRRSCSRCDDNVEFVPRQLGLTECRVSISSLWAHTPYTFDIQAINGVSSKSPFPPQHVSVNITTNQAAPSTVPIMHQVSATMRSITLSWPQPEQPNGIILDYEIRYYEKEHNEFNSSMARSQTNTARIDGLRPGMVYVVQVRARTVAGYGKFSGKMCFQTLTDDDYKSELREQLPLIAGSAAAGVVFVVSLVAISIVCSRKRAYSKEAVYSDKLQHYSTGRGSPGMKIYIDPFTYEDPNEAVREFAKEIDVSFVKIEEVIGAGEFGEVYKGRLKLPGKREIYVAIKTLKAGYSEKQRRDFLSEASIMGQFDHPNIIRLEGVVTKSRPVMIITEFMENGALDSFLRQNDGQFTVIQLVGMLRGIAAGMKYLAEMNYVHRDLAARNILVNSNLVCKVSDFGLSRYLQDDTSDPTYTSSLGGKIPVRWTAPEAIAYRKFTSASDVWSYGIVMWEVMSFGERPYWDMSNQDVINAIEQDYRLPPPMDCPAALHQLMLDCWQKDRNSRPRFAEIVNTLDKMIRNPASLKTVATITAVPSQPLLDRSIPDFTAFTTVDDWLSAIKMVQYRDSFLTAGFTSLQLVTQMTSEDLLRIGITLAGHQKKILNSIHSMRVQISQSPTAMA

[15] = target: Serine/threonine-protein kinase 38 (Homo sapiens) (UniProt Q15208); assay: Inhibition of human STK38 at 100 nM using KKRNRRLSVA as substrate by [gamma-33P]-ATP assay
[16] = target: Myosin-IIIa (Homo sapiens) (UniProt Q8NEV4); assay: Inhibition of human MYO3A at 100 nM using MBP as substrate by [gamma-33P]-ATP assay
[17] = target: Serine/threonine-protein kinase mTOR (Homo sapiens, UniProt P42345); assay: Inhibition of recombinant human N-terminal FLAG-tagged mTOR (1362 to end residues) using Ulight-4E-BP1 as substrate incubated for 30 mins by fluorescence assay
[18] = target: CDK9/Cyclin K (Homo sapiens) (UniProt P50750+O75909); assay: Inhibition of human CDK9/cyclin-K at 100 nM using KTFCGTPEYLAPEVRREPRILSEEEQEMFRDFDYIADWC as substrate by [gamma-33P]-ATP assay; type: protein-complex assay
[19] = target: CDK18/Cyclin Y (Homo sapiens) (UniProt Q07002+Q8ND76); assay: Inhibition of human CDK18/cyclin-Y at 100 nM using RB protein as substrate by [gamma-33P]-ATP assay; type: protein-complex assay
[20] = target: Calcium/calmodulin-dependent protein kinase type II subunit delta (Homo sapiens) (UniProt Q13557); assay: Inhibition of human CAMK2D at 100 nM using KKLNRTLSFAEPG as substrate by [gamma-33P]-ATP assay
[21] = Clearance in Sprague-Dawley rat at 1 mg/kg, iv measured upto 24 hrs by LC-MS/MS analysis; type: ADME, organism-based; conditions: in vivo
[22] = target: Lymphokine-activated killer T-cell-originated protein kinase (Homo sapiens) (UniProt Q96KB5); assay: Inhibition of human PBK at 100 nM using MBP as substrate by [gamma-33P]-ATP assay
[23] = target: Tyrosine-protein kinase CSK (Homo sapiens) (UniProt P41240); assay: Inhibition of human CSK at 100 nM using poly[Glu:Tyr] (4:1) as substrate by [gamma-33P]-ATP assay
[24] = target: Non-receptor tyrosine-protein kinase TYK2 (Homo sapiens) (UniProt P29597); assay: Inhibition of human TYK2 at 100 nM using KKSRGDYMTMQIG as substrate by [gamma-33P]-ATP assay
[25] = target: LIM domain kinase 2 (Homo sapiens) (UniProt P53671); assay: Inhibition of human LIMK2 at 100 nM using cofilin as substrate by [gamma-33P]-ATP assay
[26] = target: Kinase suppressor of Ras 2 (Homo sapiens) (UniProt Q6VAB6); assay: Inhibition of human KSR2 at 100 nM using KRREILSRRPSYR as substrate by [gamma-33P]-ATP assay
[27] = target: Myosin-IIIb (Homo sapiens) (UniProt Q8WXR4); assay: Inhibition of human MYO3B at 100 nM using MBP as substrate by [gamma-33P]-ATP assay
[28] = target: Tau-tubulin kinase 1 (Homo sapiens) (UniProt Q5TCY1); assay: Inhibition of human TTBK1 at 100 nM using MBP as substrate by [gamma-33P]-ATP assay
Chain of Tau-tubulin kinase 1 (Homo sapiens) (Q5TCY1 whole entry): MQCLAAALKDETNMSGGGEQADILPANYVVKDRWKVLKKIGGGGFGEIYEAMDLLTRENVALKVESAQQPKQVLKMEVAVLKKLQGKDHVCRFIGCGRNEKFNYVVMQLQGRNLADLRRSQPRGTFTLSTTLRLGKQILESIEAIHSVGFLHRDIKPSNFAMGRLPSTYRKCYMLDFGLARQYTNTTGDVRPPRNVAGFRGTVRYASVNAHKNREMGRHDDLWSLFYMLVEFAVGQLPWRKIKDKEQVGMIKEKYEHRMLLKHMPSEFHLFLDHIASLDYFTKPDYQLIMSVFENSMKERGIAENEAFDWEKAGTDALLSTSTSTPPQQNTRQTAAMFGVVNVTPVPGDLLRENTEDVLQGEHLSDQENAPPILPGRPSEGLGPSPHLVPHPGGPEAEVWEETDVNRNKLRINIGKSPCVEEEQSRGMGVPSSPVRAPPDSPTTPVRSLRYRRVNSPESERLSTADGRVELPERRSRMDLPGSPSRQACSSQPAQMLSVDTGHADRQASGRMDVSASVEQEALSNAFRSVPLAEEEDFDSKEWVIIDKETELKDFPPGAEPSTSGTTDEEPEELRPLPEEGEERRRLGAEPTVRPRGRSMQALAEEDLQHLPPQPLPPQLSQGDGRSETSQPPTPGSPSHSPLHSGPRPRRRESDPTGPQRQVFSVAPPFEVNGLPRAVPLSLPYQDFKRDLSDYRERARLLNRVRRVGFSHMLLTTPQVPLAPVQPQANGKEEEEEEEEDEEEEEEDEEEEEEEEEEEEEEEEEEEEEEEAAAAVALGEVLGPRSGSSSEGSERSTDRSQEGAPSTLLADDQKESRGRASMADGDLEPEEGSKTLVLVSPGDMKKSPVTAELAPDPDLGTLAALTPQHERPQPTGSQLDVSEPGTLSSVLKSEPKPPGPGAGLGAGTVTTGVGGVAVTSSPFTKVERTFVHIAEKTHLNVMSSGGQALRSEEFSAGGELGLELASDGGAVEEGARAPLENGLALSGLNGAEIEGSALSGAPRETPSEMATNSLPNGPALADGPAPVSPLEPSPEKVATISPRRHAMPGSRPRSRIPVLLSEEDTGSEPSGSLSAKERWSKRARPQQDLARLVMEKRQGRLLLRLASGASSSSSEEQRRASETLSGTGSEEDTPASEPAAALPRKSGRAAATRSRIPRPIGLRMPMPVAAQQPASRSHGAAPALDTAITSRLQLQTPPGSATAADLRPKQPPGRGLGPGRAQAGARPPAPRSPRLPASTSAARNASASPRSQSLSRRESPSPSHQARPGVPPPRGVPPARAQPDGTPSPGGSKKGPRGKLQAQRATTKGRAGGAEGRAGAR

[29] = target: Beta-adrenergic receptor kinase 1 (Homo sapiens) (UniProt P25098); assay: Inhibition of human GRK2 at 100 nM using casein as substrate by [gamma-33P]-ATP assay
Chain of Beta-adrenergic receptor kinase 1 (Homo sapiens) (P25098 whole entry): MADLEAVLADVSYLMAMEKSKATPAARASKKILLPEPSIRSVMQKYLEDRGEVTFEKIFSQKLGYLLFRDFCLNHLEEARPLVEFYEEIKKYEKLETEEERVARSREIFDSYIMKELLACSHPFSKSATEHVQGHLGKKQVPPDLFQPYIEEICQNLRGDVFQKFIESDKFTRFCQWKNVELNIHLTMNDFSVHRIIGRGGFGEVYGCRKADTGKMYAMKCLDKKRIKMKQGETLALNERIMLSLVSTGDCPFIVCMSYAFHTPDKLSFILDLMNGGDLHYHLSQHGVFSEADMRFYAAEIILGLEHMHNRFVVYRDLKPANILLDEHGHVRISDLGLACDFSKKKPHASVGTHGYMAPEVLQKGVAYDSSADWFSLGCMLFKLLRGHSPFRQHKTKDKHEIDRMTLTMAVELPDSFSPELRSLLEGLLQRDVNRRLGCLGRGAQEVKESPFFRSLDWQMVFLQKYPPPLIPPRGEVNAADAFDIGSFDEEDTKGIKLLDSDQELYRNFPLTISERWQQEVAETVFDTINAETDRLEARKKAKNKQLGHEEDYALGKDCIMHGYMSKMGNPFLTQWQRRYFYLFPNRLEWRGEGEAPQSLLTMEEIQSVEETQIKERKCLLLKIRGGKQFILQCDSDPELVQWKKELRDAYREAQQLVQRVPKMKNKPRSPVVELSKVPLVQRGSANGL

[30] = target: Serine/threonine-protein kinase WNK3 (Homo sapiens) (UniProt Q9BYP7); assay: Inhibition of human WNK3 at 100 nM using MBP as substrate by [gamma-33P]-ATP assay
[31] = target: [Pyruvate dehydrogenase (acetyl-transferring)] kinase isozyme 1, mitochondrial (Homo sapiens) (UniProt Q15118); assay: Inhibition of human PDK1 at 100 nM using MBP as substrate by [gamma-33P]-ATP assay

Chain of MAP kinase-interacting serine/threonine-protein kinase 2 (Homo sapiens) (Q9HBH9 whole entry, looked up): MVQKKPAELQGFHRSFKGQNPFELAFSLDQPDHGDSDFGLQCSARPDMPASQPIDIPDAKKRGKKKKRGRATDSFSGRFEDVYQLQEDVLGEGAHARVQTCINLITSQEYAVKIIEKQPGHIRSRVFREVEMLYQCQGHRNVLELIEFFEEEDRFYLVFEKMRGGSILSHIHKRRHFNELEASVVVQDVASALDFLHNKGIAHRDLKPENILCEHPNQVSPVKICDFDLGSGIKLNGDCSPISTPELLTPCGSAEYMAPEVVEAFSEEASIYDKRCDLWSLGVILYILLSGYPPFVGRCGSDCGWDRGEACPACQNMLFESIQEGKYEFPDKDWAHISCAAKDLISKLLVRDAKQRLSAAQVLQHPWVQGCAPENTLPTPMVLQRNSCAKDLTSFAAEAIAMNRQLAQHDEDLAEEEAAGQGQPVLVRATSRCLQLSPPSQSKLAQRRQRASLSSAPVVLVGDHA
Chain of Tyrosine-protein kinase HCK (Homo sapiens) (P08631 2-526 limits assumed): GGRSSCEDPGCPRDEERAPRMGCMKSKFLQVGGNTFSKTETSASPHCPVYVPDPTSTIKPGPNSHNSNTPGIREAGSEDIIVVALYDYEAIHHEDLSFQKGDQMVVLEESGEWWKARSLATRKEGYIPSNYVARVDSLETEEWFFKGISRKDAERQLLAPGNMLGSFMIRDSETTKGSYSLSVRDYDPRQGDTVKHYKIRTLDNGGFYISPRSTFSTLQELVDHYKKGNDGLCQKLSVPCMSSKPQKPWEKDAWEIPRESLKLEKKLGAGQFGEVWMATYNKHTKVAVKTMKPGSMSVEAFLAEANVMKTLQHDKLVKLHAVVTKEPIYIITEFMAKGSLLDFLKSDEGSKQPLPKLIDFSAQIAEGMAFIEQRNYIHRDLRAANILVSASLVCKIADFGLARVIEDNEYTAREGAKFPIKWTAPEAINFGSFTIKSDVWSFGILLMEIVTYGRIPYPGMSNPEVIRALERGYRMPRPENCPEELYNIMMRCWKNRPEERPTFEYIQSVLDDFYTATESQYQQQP

COc1ccc(N2C(=O)COc3ccc(-c4cnc(OC)c(NS(=O)(=O)c5ccc(F)cc5)c4)cc32)cc1 showed an inhibition [1] of 7.23%, an inhibition [2] of 21.1% and an inhibition [3] of 12.8%. The “inhibition (INH)” value [4] was “<=100%”, the inhibition [5] was -0.86% and the inhibition [6] was 15.1%. For the same compound, the inhibition [7] was 12%, the inhibition [8] was -1.64% and the Activity [9] was “Non-Toxic”. It also gave an inhibition [10] of 11.4%, an inhibition [11] of -4.54% and an inhibition [12] of 3.44%. For the same compound, the inhibition [13] was 10.1%, the inhibition [14] was 8.67% and the inhibition [15] was 4.17%. For the same compound, the inhibition [16] was 2.8%, the IC50 [17] was 13.9 nM and the inhibition [18] was 9.26%. It also gave an inhibition [19] of 9.02%, an inhibition [20] of 22.6% and a clearance [21] of 8.56 mL/min/kg. The inhibition [22] was 0.99%, the inhibition [23] was 1% and the inhibition [24] was 11.3%. For the same compound, the inhibition [25] was 2.98%, the inhibition [26] was 20.8% and the inhibition [27] was 8.36%. The inhibition [28] was -1.55%, the inhibition [29] was 0.16% and the inhibition [30] was -0.32%. It also gave an inhibition [31] of 25.8%.

— ChEMBL document CHEMBL4364276, “Discovery of 4-phenyl-2H-benzo[b][1,4]oxazin-3(4H)-one derivatives as potent and orally active PI3K/mTOR dual inhibitors” (Eur J Med Chem, 2019)
